Assay results: US11389433B2, “BRD4 inhibitor treatment of IgE-mediated diseases” (THE BOARD OF REGENTS OF THE UNIVERSITY OF TEXAS SYSTEM, priority 2018, dated 2022)

Tests used:
[1] = tested on: rCDE-challenged C57BL/6 mice; experiment: Repetitive cat dander extract (rCDE) challenge, airway remodeling model; assay type: in vivo, mouse; settings: 10 mg/kg ip; for modified Ashcroft score: rCDE alone 8.8±2 (IKKi study), 9±2 (ZL0454 study)
Protocol: 12 week old male wild-type (WT) C57BL/6 mice were purchased from Jackson Laboratory (Bar Harbor, Me.). CDE (Stallergenes/Greer laboratories, 20 μg/dose) was administered to naïve C57BL6/J mice every other day via the intranasal route for a total of 15 administrations (n=5 mice/group). In the IKK inhibitor experiments, mice were either pretreated with vehicle or the selective IKK inhibitor [BMS345541, 10 mg/kg via the intraperitoneal (ip) route]. […] Mice were sacrificed 12 d later to allow resolution of the acute inflammation.
Formalin-fixed lungs were embedded in paraffin, sectioned at a 4 μm thickness, and stained with hematoxylin and eosin or Masson's trichrome. Microscopy was performed on a NIKON Eclipse Ti System 16, 17. Pulmonary fibrosis was graded using a modified Ashcroft scoring method 16, 17. In brief, to determine the fibrosis histopathology score for the lung of each mouse, the entire left and right longitudinal lung sections were scored separately (score range, 0 to 9) at ×100 magnification, and the scores were combined (total score range, 0 to 18)^16, 17.
Bronchoalveolar lavage and tissue processing. Animals were anesthetized, bronchoalveolar lavage fluid (BALF) was obtained and the mice sacrificed. Lung tissues were taken for total RNA extraction or fixed for histological examination. For histological examination, lungs were inflated under 25 cm H2O pressure with 10% (v/v) neutral buffered formalin through the tracheal cannula and immersed in 10% buffered formalin for at least 24 h. After being processed into paraffin blocks, the lungs were cut into 5-μm sections and stained with Masson Trichrome to assess fibrotic changes. Microscopy was performed on a NIKON Eclipse Ti System^75.
Quantification of accumulated mucin was assessed by 2 investigators who were blind to the treatment groups on a subjective scale of 0, 1, 2, 3, and 4 corresponding to none, mild, moderate, marked, or severe mucin deposition, respectively. Data were expressed as means of scores recorded by 2 blinded investigators^76,77.
(§1) Cellular recruitment into the airway lumen was assessed in the collected bronchoalveolar lavage fluid (BALF) of mice. Lungs were perfused twice with 1 mL of sterile PBS (pH 7.4) and total cell counts determined by trypan blue staining and counting using a hemocytometer. Differential cell counts were performed on cytocentrifuge preparations (Cytospin 3; Thermo Shandon, Pittsburgh, Pa.) stained with Wright-Giemsa. A total of 300 cells were counted per sample using light microscopy.
(§2) For gene expression analyses, 0.1 μg of cDNA product from reverse transcription of total RNA was amplified using SYBR Green Supermix (Bio-Rad) and gene-specific primers as previously described^75, 78. Quantification of relative changes in gene expression was calculated using the ΔΔCt method^79,80 and expression as the fold change between experimental and control samples was normalized to internal control peptidylprolyl isomerase A (PPI1A)/cyclophilin A.
Confocal Immunofluorescence assays of lung sections were performed on formalin-fixed, paraffin-embedded sections after rehydration using serial concentrations of ethanol. Antigen retrieval was performed in Tris-EDTA buffer (pH 9.0). Lung sections were blocked using 0.1% Triton-X, 5% normal goat serum in phosphate buffered saline (PBS) and incubated with primary antibodies of rabbit anti-p276RelA, pIKKα/β, SNAIL H3K122ac, COL1A, VIM, FN1, and αSMA (Abcam, 1:100 dilution) overnight at 4° C. Normal anti-rabbit IgG were used as staining specificity controls. After washing, lung sections were stained with Alexa Fluor 488- or 568-conjugated goat anti-rabbit IgG (Life Technologies) in incubation buffer for 1 h. Nuclei were stained with 4′, 6-diamidino-2-phenylindole (DAPI) (5 μg/ml in PBS, 20 min) and mounted slides visualized with a LSM510 fluorescence confocal microscope, magnification 63×.
Total IgE in serum were measured using Sandwich ELISA. […]

[2] = tested on: hSAECs; experiment: CDE-induced mesenchymal transition of hSAECs; assay type: cell-based, human; settings: CDE 20 μg/mL 15 d; 10 μM
Protocol: Immortalized human small airway epithelial cells (hSAECs) were previously described^25. hSAECs were grown in SAGM small airway epithelial cell growth medium (Lonza, Walkersville, Md.) in a humidified atmosphere of 5% CO2. BMS345541 was purchased from Sigma Aldrich. CDE was purchased from Greer Laboratories.
as §2
hSAECs were incubated ±CDE (20 μg/mL) for 15 d, re-plated on glass cover slips pretreated with rat tail collagen (Roche Applied Sciences), and fixed with 4% paraformaldehyde in PBS. Afterwards, the fixed cells were stained with Alexa Fluor® 488- or 568-phalloidin (Life Technologies) for cytoplasmic distribution of F-actin (green or red color) and also counterstained with 4′,6-diamidino-2-phenylindole (DAPI) for nuclear staining (blue color). The cells were visualized with a Nikon fluorescence confocal microscope at a magnification of 63×^75, 78.
For immunofluorescence staining, hSAECs were plated on rat tail collagen-treated cover glasses and stimulated with CDE for the indicated times. The cells were fixed with 4% paraformaldehyde in PBS and incubated with 0.1 m ammonium chloride for 10 min. […] After washing, cells were stained with Alexa Fluor 488- or 568-conjugated goat anti-rabbit IgG (Life Technologies) respectively in incubation buffer for 1 h, then visualized with a LSM510 fluorescence confocal microscope, magnification 63×.

[3] = tested on: acute CDE-challenged mice; experiment: Acute intranasal CDE challenge, BALF cell counts; assay type: in vivo, mouse; settings: 10 mg/kg; within 24 h of treatment
Description: FIG. 12. BRD4 pathway mediates CDE-induced EMT of airway epithelial cells. […] A, Q-RT-PCR for CDH1 mRNA expression. #, p<0.01, compared to without CDE, n=3. B, Q-RT-PCR for SNAI1 mRNA expression. *, p<0.01, compared to CDE alone, n=3. C, Q-RT-PCR for COL1A, FN1, and VIM mRNA expression. D, Q-RT-PCR for IL6 mRNA expression. E, Confocal immunofluorescence microscopy for phalloidin (green color), H3K122-Ac (red color), SNAI1 (green color), and VIM (red color) counterstained with DAPI (blue color) in WT hSAECs in absence or presence of CDE (20 μg/mL, 15d) stimulation. Images were acquired at 63×. At right are quantifications of relative fluorescence intensities of phalloidin, H3K122ac, SNAIL and VIM, * p<0.01, n=5. […] Shown are total, macrophage, and neutrophil counts in BALF 24 h later after CDE challenge. G. Total serum IgE was quantitated for each chronic treatment group **, p<0.01, n=5.
as §1

[4] = 3 months of administration; cited from earlier work
[5] = biological target: BRD4 (Homo sapiens, UniProt O60885); settings: in cellulo; cited from earlier work
[6] = tested on: CIG5; experiment: Inhibition of CIG5 induction in hSAECs; assay type: cell-based; settings: Homo sapiens
[7] = tested on: IL-6; experiment: Inhibition of IL-6 induction in hSAECs; assay type: cell-based; settings: Homo sapiens
[8] = cited from earlier work

Cc1cc(/N=N/c2ccc(S(=O)(=O)NC3CCCC3)cc2)c(N)cc1O [ZL0454, (E)-4-((2-Amino-4-hydroxy-5-methylphenyl)diazenyl)-N-cyclopentylbenzenesulfonamide]
CDE-specific circulating IgE (allergic sensitization) ([1]; rCDE): completely blunted allergic responses | PAS staining (mucin, mucous metaplasia) ([1]; rCDE): reduced | RelA-BRD4 binding in lung sections (proximity ligation assay) ([1]; rCDE): disrupted | fibrosis / collagen formation and hypercellularity (Masson trichrome) ([1]; rCDE): reduced collagen formation and hypercellularity | mesenchymal and ECM gene mRNA expression in total lung RNA (Q-RT-PCR) ([1]; rCDE): BRD4-dependent | mucosal H3K122 Ac staining (BRD4 HAT activity) ([1]; rCDE): inhibited | mucosal mesenchymal and ECM proteins (SNAI1, VIM, COL1A, FN1), immunofluorescence ([1]; rCDE): inhibited | subepithelial αSMA+/COL1+ myofibroblast population ([1]; rCDE): blocked | hydroxyproline content in the lung ([1]; rCDE, rCDE alone 0.65±1): 0.35 ± 0.4 µg/mg | modified Ashcroft score ([1]; rCDE): 1.5±0.5 | hydroxyproline content in BALF ([1]; rCDE, rCDE alone 130±20): 70 ± 10 ng/mL | CDE-induced inhibition of CDH1 mRNA [2]: blocked | CDE-induced upregulation of SNAI1, FN1, VIM, COL1A and IL6 mRNAs [2]: significantly blocked | formation of actin stress fibers, H3K122 Ac, SNAI1 and VIM expression (confocal immunofluorescence) [2]: prevented | acute CDE-induced BALF neutrophilia [3]: blocked | tolerability / apparent toxicity [4]: well tolerated over 3 months of administration without apparent toxicity | BRD4 binding to Pol II and histones [5]: disrupts

Cc1cc(/N=N/c2ccc3c(c2)CCC(=O)N3)c(N)cc1O [ZL0420]
IC50 [6]: 0.42 µM

COc1cc(OC)c2c(=O)cc(-c3cc(C)c(OCCO)c(C)c3)oc2c1 [ZL0468]
IC50 [6]: 2.6 µM | IC50 [7]: 2.8 µM

CCC(=O)O[C@]1(C(=O)SCF)[C@H](C)C[C@H]2[C@@H]3C[C@H](F)C4=CC(=O)C=C[C@]4(C)[C@@]3(F)[C@@H](O)C[C@@]21C [Fluticasone propionate]
solubility in dimethyl sulfoxide and dimethylformamide [8]: freely soluble | solubility in methanol and 95% ethanol [8]: slightly soluble | solubility in water ([8]; water): practically insoluble

Cc1ccc2nc(NCCN)c3ncc(C)n3c2c1 [IKKi, reference compound]
total leukocytes in the BALF ([1]; rCDE 15 intranasal challenges, rCDE alone 1,700×10^3): 450×10^3 cells/ml | CDE-specific circulating IgE (allergic sensitization) ([1]; rCDE): completely blocked | PAS staining (mucin, mucous metaplasia) ([1]; rCDE): blocked | fibrosis / collagen formation and hypercellularity (Masson trichrome) ([1]; rCDE): reduced the fibrosis and hypercellularity, although not completely in the alveoli | mesenchymal and ECM gene mRNA expression in total lung RNA (Q-RT-PCR) ([1]; rCDE): inhibited | mucosal mesenchymal and ECM proteins (SNAI1, VIM, COL1A, FN1), immunofluorescence ([1]; rCDE): completely blocked | subepithelial αSMA+/COL1+ myofibroblast population ([1]; rCDE): blocked | hydroxyproline concentration in BALF and lung tissue ([1]; rCDE, rCDE alone 2-fold increase): normalized | modified Ashcroft score ([1]; rCDE): 2±1 | phospho-IKKα/β abundance in the airway epithelial layer ([1]; rCDE, rCDE alone 9-fold increase): reduced to control values | mucosal phospho-Ser 276 RelA formation ([1]; rCDE, rCDE alone 14-fold increase): blocked
